Tests used:
dual-X clone 88D = assay: Entry inhibitor susceptibility, pseudotyped HIV-1 entry (luciferase) assay, env clone 88D (c88); assay type: cell-based; details: Human immunodeficiency virus 1; clone c88, tropism dual; read-out: Sensitivity of Entry Inhibitors
Experimental: (§1) Susceptibility assays for HIV-1 entry inhibitors were performed using packaging host cells consisting of the human embryonic kidney cell line 293 (Cell Culture Facility, UC San Francisco, SF, Calif.) and target host cells consisting of a human osteosarcoma (HOS) cell line expressing CD4 (HT4) plus CCR5, and CXCR4, astrocytoma (U-87) cell lines expressing either CD4 and CCR5 or CD4 and CXCR4, or glioma (NP2) cell lines expressing CD4 and either CCR5 or CXCR4.
(§2) Drug susceptibility and tropism testing was performed using pHIVenv and pHIVluc or pHIVlucΔU3. […] After infection ([…]) the target cells were lysed and luciferase activity was measured. […] The amount of luciferase activity detected in the infected cells was used as a direct measure of “infectivity” (FIGS. 1 and 2). […] Drug susceptibility was assessed by comparing the infectivity in the absence of drug to infectivity in the presence of drug. Relative drug susceptibility can be quantified by comparing the susceptibility of the “test” virus to the susceptibility of a well-characterized reference virus (wild type) derived from a molecular clone of HIV-1, for example NL4-3 or PIXB2.
(§3) The ability of a virus to enter a cell was assessed by comparing the amount of luciferase activity produced in each cell type, e.g., cells expressing CD4 and either CCR5 or CXCR4, both in the presence and absence of drug. […]

dual-R clone 86d = assay: Entry inhibitor susceptibility, pseudotyped HIV-1 entry (luciferase) assay, env clone 86d (c86); assay type: cell-based
Experimental: as §1, §2, §3

dual-X clone 11D = assay: Entry inhibitor susceptibility, pseudotyped HIV-1 entry (luciferase) assay, env clone 11D (c11); assay type: cell-based; details: Human immunodeficiency virus 1; clone c11, tropism dual; read-out: Sensitivity of Entry Inhibitors
Experimental: as §1, §2, §3

X4-tropic clone 42x = assay: Entry inhibitor susceptibility, pseudotyped HIV-1 entry (luciferase) assay, env clone 42x (c42); assay type: cell-based
Experimental: as §1, §2, §3

[1] = system: Isogenic viruses containing one or two specific mutations in the gp41 transmembrane envelope protein; assay: T-20 susceptibility of isogenic viruses with gp41 mutations (FIG. 4B); assay type: cell-based, HIV; details: cells expressing CD4, CCR5 and CXCR4, gp41 mutants vs wild type
Experimental: Cells expressing CD4, CCR5 and CXCR4 were infected in the absence of T-20 and over a wide range of T-20 concentrations (x-axis log 10 scale). The percent inhibition of viral replication (y-axis) was determined by comparing the amount of luciferase produced in infected cells in the presence of T-20 to the amount of luciferase produced in the absence of T-20. Isogenic viruses containing one or two specific mutations in the gp41 transmembrane envelope protein were tested (highlighted in red in the figure legend). Drug susceptibility is quantified by determining the concentration of T-20 required to inhibit 50% of viral replication (IC50, shown as vertical dashed lines). […]
as §2

dual-R clone 21d = assay: Entry inhibitor susceptibility, pseudotyped HIV-1 entry (luciferase) assay, env clone 21d (c21); assay type: cell-based; details: dual-R clone 21d compared to R5-, X4- and dual-X tropic clones
Experimental: as §1, §2, §3

| Compound | IC50 (dual-X clone 88D) | IC50 (dual-R clone 86d; Human immunodeficiency virus 1, clone c86, tropism dual-R, read-out: Sensitivity of Entry Inhibitors) | IC50 (dual-X clone 11D) | IC50 (X4-tropic clone 42x; Human immunodeficiency virus 1, clone c42, tropism X4, read-out: Sensitivity of Entry Inhibitors) | sensitivity compared to other clones (in words) (X4-tropic clone 42x; X4 clone 42d (so in the source)) | susceptibility to fusion inhibitor (in words) [1] | fold-reduced susceptibility (dual-R clone 86d; dual-R clone 86d compared to R5-, X4- and dual-X tropic clones) | fold-reduced susceptibility (dual-R clone 21d) |
| --- | --- | --- | --- | --- | --- | --- | --- | --- |
| c1cc(CN2CCCNCCNCCCNCC2)ccc1CN1CCCNCCNCCCNCC1 [AMD] | 8.7 nM | 5.6 nM | 3.4 nM | 45.8 nM | subtle reduction in sensitivity | – | – | – |
| enfuvirtide | – | – | – | – | – | reduced susceptibility | 4-5 fold | 4-5 fold |

— US10161931B2, “Methods for determining susceptibility to coreceptor inhibitors” (Monogram Biosciences, Inc., priority 2006, dated 2018)
